Laboratory results published in paper PMC8333425, “Discovery of a dual Ras and ARF6 inhibitor from a GPCR endocytosis screen” (Nature Communications, 2021).
Values joined by “and” are separate entries in the source; they are usually repeats but may differ in a detail not shown here. Equal entries are not always repeated. “Also recorded” adds a separate entry of the source.

System: A549 cells
Experiment: Cell proliferation assay (IncuCyte confluence), A549
Format: cell-based, human
Conditions: for cell confluence (proliferation) / proliferation (confluence): listed as Rasarfin
Protocol: Cell proliferation was measured by a label-free, non-invasive cellular confluence assay using IncuCyte Live-Cell Imaging Systems (Essen Bioscience, Ann Arbor, MI, USA). MDA-MB-231 breast cancer and A549 lung carcinomas cells (1500 cells in 150 μl/well) were seeded overnight on a clear 96-well plate. Twenty-four hours later, the cells were treated with 0.1% DMSO, or different concentrations of Rasarfin (as indicated), or 10 µM of 21.4 or 21.8 for 96 h total. The plate was placed in an XL-3 incubation chamber maintained at 37 °C and the cells were photographed using a ×4 objective, every 3 h for 4 days. Cell confluence was calculated using IncuCyte S3 software (2019A) and cell proliferation was expressed as an increase in the percentage of confluence. Experiments were done in triplicate and repeated three times.

CC(C)C(=O)N1CCN(c2ccc(NC(=O)c3cc4ccccc4o3)cc2Cl)CC1 [Compound 21]
cell confluence (proliferation) (0.5μM, 18 hr): 9.332 and 9.3043 and 10.3515 | proliferation (confluence) (0.5μM, 18 hr): 24.4895 and 24.566 and 18.9209 | cell confluence (proliferation) (0.5μM, 21 hr): 10.4726 and 10.4517 and 11.0087 | proliferation (confluence) (0.5μM, 21 hr): 27.1666 and 26.6886 and 21.2647 | cell confluence (proliferation) (0.5μM, 24 hr): 10.2389 and 10.6946 and 11.5243 | proliferation (confluence) (0.5μM, 24 hr): 32.6256 and 30.048 and 24.569 | cell confluence (proliferation) (0.5μM, 27 hr): 10.805 and 11.0634 and 12.4799 | proliferation (confluence) (0.5μM, 27 hr): 37.2681 and 34.654 and 21.9145 | cell confluence (proliferation) (0.5μM, 30 hr): 11.9152 and 12.485 and 12.9764 | proliferation (confluence) (0.5μM, 30 hr): 41.4109 and 39.7044 and 23.7331 | cell confluence (proliferation) (0.5μM, 33 hr): 12.3634 and 12.541 and 13.8499 | proliferation (confluence) (0.5μM, 33 hr): 46.0502 and 43.4249 and 28.4554 | proliferation (confluence) (0.5μM, 36 hr): 51.8492 and 49.6782 and 33.7864 | proliferation (confluence) (0.5μM, 39 hr): 59.4007 and 56.0507 | cell confluence (proliferation) (1μM, 18 hr): 8.679 and 9.302 and 9.424 | proliferation (confluence) (1μM, 18 hr): 19.1081 and 18.3715 and 26.7974 | cell confluence (proliferation) (1μM, 21 hr): 9.1 and 10.4023 and 9.667 | proliferation (confluence) (1μM, 21 hr): 21.9794 and 20.7173 and 31.1317 | cell confluence (proliferation) (1μM, 24 hr): 9.619 and 10.4616 and 10.6323 | proliferation (confluence) (1μM, 24 hr): 24.7962 and 23.1147 and 35.367 | cell confluence (proliferation) (1μM, 27 hr): 10.2207 and 11.0837 and 11.4063 | proliferation (confluence) (1μM, 27 hr): 28.2759 and 21.7311 and 40.5461 | cell confluence (proliferation) (1μM, 30 hr): 12.7027 and 12.0976 and 12.1684 | proliferation (confluence) (1μM, 30 hr): 31.8721 and 23.9788 and 46.1337 | cell confluence (proliferation) (1μM, 33 hr): 12.8101 and 12.4309 and 12.7886 | proliferation (confluence) (1μM, 33 hr): 35.7112 and 29.1451 and 51.7711 | cell confluence (proliferation) (1μM, 36 hr): 13.5305 | proliferation (confluence) (1μM, 36 hr): 39.6717 and 33.6517 and 60.1281 | proliferation (confluence) (1μM, 39 hr): 47.4848 and 40.2179 | cell confluence (proliferation) (2μM, 18 hr): 9.332 and 13.0386 and 10.4059 | proliferation (confluence) (2μM, 18 hr): 23.9116 and 20.6158 and 17.6553 | cell confluence (proliferation) (2μM, 21 hr): 10.4726 and 14.2716 and 10.9627 | proliferation (confluence) (2μM, 21 hr): 27.3499 and 22.7836 and 20.9361 | cell confluence (proliferation) (2μM, 24 hr): 10.2389 and 15.0053 and 11.5919 | proliferation (confluence) (2μM, 24 hr): 32.3505 and 25.0274 and 22.3969 | cell confluence (proliferation) (2μM, 27 hr): 10.805 and 15.8245 and 11.5779 | proliferation (confluence) (2μM, 27 hr): 36.576 and 29.0777 and 20.6023 | cell confluence (proliferation) (2μM, 30 hr): 11.9152 and 18.2698 and 12.1995 | proliferation (confluence) (2μM, 30 hr): 40.8806 and 32.6797 and 23.0649 | cell confluence (proliferation) (2μM, 33 hr): 12.3634 and 18.789 and 13.0531 | proliferation (confluence) (2μM, 33 hr): 45.6439 and 35.4748 and 28.9537 | cell confluence (proliferation) (2μM, 36 hr): 12.4389 and 19.3831 and 13.6426 | proliferation (confluence) (2μM, 36 hr): 52.1825 and 39.835 and 32.0484 | proliferation (confluence) (2μM, 39 hr): 61.5258 and 48.4257 and 38.4343 | cell confluence (proliferation) (5μM, 18 hr): 10.0859 and 8.906 and 10.6663 | proliferation (confluence) (5μM, 18 hr): 17.9959 and 26.9316 and 16.8915 | cell confluence (proliferation) (5μM, 21 hr): 10.2266 and 10.3015 and 11.0904 | proliferation (confluence) (5μM, 21 hr): 19.5572 and 26.3286 and 18.8493 | cell confluence (proliferation) (5μM, 24 hr): 11.4115 and 9.856 and 11.3241 | proliferation (confluence) (5μM, 24 hr): 21.409 and 27.1851 and 17.4154 | cell confluence (proliferation) (5μM, 27 hr): 11.7245 and 10.4475 and 12.7275 | proliferation (confluence) (5μM, 27 hr): 22.045 and 28.0966 and 15.1402 | cell confluence (proliferation) (5μM, 30 hr): 12.7699 and 11.1958 and 12.4012 | cell confluence (proliferation) (5μM, 33 hr): 12.6309 and 11.193 and 12.7637 | proliferation (confluence) (5μM, 33 hr): 25.4457 and 25.9951 and 18.0713 | cell confluence (proliferation) (5μM, 36 hr): 13.1014 and 11.8184 and 13.4133 | proliferation (confluence) (5μM, 36 hr): 26.9015 and 24.9434 and 20.5372 | proliferation (confluence) (5μM, 39 hr): 29.6606 and 26.9243 and 22.5988 | cell confluence (proliferation) (10μM, 18 hr): 8.409 and 7.2062 and 9.084 | proliferation (confluence) (10μM, 18 hr): 10.5387 and 14.905 and 7.973 | cell confluence (proliferation) (10μM, 21 hr): 8.837 and 8.143 and 9.362 | proliferation (confluence) (10μM, 21 hr): 10.701 and 14.8102 and 7.904 | cell confluence (proliferation) (10μM, 24 hr): 9.479 and 8.1046 and 9.485 | proliferation (confluence) (10μM, 24 hr): 11.1918 and 15.0497 and 7.616 | cell confluence (proliferation) (10μM, 27 hr): 9.816 and 8.066 and 10.344 | cell confluence (proliferation) (10μM, 30 hr): 10.3507 and 8.537 and 10.5983 | cell confluence (proliferation) (10μM, 33 hr): 10.1924 and 8.993 and 10.9238 | cell confluence (proliferation) (10μM, 36 hr): 10.249 and 9.152 and 11.0645 | A549 cell growth (confluency) (5 and 10 µM of Rasarfin): efficiently blocks proliferation; also recorded: efficient A549 cell growth inhibition
